Measurements published in patent publication US12077503B2, “Substituted cyclic amides and their use as herbicides” (FMC CORPORATION, priority 2015, dated 2024).

Tests used:
Format in all cases: in vivo
Kochia (Kochia scoparia) [1] = experiment: Test A preemergence; conditions: Bassia scoparia, pre-emergence, 240 h, preemergence, 0 to 100 scale where 0 is no effect and 100 is complete control, read-out: Kochia plant response rating; for pest or weed control at 125 g/ha: 125 g ai/ha, approx. 10 d; for pest or weed control at 500 g/ha: 500 g ai/ha
Summary of the method: (§1)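 Seeded soil received test chemicals as a preemergence directed spray, and seedlings at one to two leaves, 2–10 cm tall, received them postemergence, in a non-phytotoxic, surfactant-containing solvent mixture. Pots were held in a greenhouse for approximately 10 d, then rated for injury from 0, no effect, to 100, complete control.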

[2] = tested on: barnyardgrass (Echinochloa crus-galli); experiment: Test A preemergence; conditions: Echinochloa crus-galli, pre-emergence, 240 h, preemergence, 0 to 100 scale where 0 is no effect and 100 is complete control, read-out: Barnyardgrass plant response rating; for pest or weed control at 125 g/ha: 125 g ai/ha, approx. 10 d; for pest or weed control at 500 g/ha: 500 g ai/ha
Summary of the method: as §1

[3] = tested on: giant foxtail (Setaria faberii); experiment: Test A preemergence; conditions: Setaria faberi, pre-emergence, 240 h, preemergence, 0 to 100 scale where 0 is no effect and 100 is complete control, read-out: Foxtail, Giant plant response rating; for pest or weed control at 125 g/ha: 125 g ai/ha, approx. 10 d; for pest or weed control at 500 g/ha: 500 g ai/ha
Summary of the method: as §1

[4] = tested on: pigweed (Amaranthus retroflexus); experiment: Test A preemergence; conditions: Amaranthus retroflexus, pre-emergence, 240 h, preemergence, 0 to 100 scale where 0 is no effect and 100 is complete control, read-out: Pigweed plant response rating; for pest or weed control at 125 g/ha: 125 g ai/ha, approx. 10 d; for pest or weed control at 500 g/ha: 500 g ai/ha
[5] = tested on: ragweed (common ragweed, Ambrosia elatior); experiment: Test A preemergence; conditions: Ambrosia artemisiifolia, pre-emergence, 240 h, preemergence, 0 to 100 scale where 0 is no effect and 100 is complete control, read-out: Ragweed plant response rating; for pest or weed control at 125 g/ha: 125 g ai/ha, approx. 10 d; for pest or weed control at 500 g/ha: 500 g ai/ha
Summary of the method: as §1

[6] = tested on: ryegrass, Italian (Italian ryegrass, Lolium multiflorum); experiment: Test A preemergence; conditions: Lolium multiflorum, pre-emergence, 240 h, preemergence, 0 to 100 scale where 0 is no effect and 100 is complete control, read-out: Ryegrass, Italian plant response rating; for pest or weed control at 125 g/ha: 125 g ai/ha, approx. 10 d; for pest or weed control at 500 g/ha: 500 g ai/ha
Summary of the method: as §1

Kochia (Kochia scoparia) [7] = experiment: Test A postemergence; conditions: Bassia scoparia, post-emergence, 240 h, postemergence, read-out: Kochia plant response rating; for pest or weed control at 125 g/ha: 125 g ai/ha, visual injury on 0 to 100 scale (0 no effect, 100 complete control), approx. 10 d; for pest or weed control at 500 g/ha: 500 g ai/ha, 0 to 100 scale, 0 is no effect, 100 is complete control
Summary of the method: as §1

[8] = tested on: barnyardgrass (Echinochloa crus-galli); experiment: Test A postemergence; conditions: Echinochloa crus-galli, post-emergence, 240 h, postemergence, read-out: Barnyardgrass plant response rating; for pest or weed control at 125 g/ha: 125 g ai/ha, visual injury on 0 to 100 scale (0 no effect, 100 complete control), approx. 10 d; for pest or weed control at 500 g/ha: 500 g ai/ha, 0 to 100 scale, 0 is no effect, 100 is complete control
Summary of the method: as §1

[9] = tested on: blackgrass (Alopecurus myosuroides); experiment: Test A postemergence; conditions: Alopecurus myosuroides, post-emergence, 240 h, postemergence, read-out: Blackgrass plant response rating; for pest or weed control at 125 g/ha: 125 g ai/ha, visual injury on 0 to 100 scale (0 no effect, 100 complete control), approx. 10 d; for pest or weed control at 500 g/ha: 500 g ai/ha, 0 to 100 scale, 0 is no effect, 100 is complete control
Summary of the method: as §1

[10] = tested on: pigweed (Amaranthus retroflexus); experiment: Test A postemergence; conditions: Amaranthus retroflexus, post-emergence, 240 h, postemergence, read-out: Pigweed plant response rating; for pest or weed control at 125 g/ha: 125 g ai/ha, visual injury on 0 to 100 scale (0 no effect, 100 complete control), approx. 10 d; for pest or weed control at 500 g/ha: 500 g ai/ha, 0 to 100 scale, 0 is no effect, 100 is complete control
Summary of the method: as §1

[11] = tested on: barnyardgrass (Echinochloa crus-galli); experiment: Test B flooded paddy test; conditions: Echinochloa crus-galli, 250 g ai/ha, Flood; 0 to 100 scale where 0 is no effect and 100 is complete control; read-out: Barnyardgrass plant response rating
Summary of the method: (§2)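 Plants at 2-leaf stage flooded to 3 cm above soil, with compounds applied directly to paddy water and that depth maintained. Plants kept in greenhouse 13–15 d. Visual rating versus controls on a 0 (no effect) to 100 (complete control) scale.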

[12] = tested on: ducksalad (Heteranthera limosa); experiment: Test B flooded paddy test; conditions: Heteranthera limosa, 250 g ai/ha, Flood; 0 to 100 scale where 0 is no effect and 100 is complete control; read-out: Ducksalad plant response rating
Summary of the method: as §2

rice (Oryra sativa) = experiment: Test B flooded paddy test; conditions: Oryza sativa, 250 g ai/ha, Flood; 0 to 100 scale where 0 is no effect and 100 is complete control; read-out: Rice plant response rating
Summary of the method: as §2

[13] = tested on: sedge, umbrella (small-flower umbrella sedge, Cyperus difformis); experiment: Test B flooded paddy test; conditions: Cyperus difformis, 250 g ai/ha, Flood; 0 to 100 scale where 0 is no effect and 100 is complete control; read-out: Sedge, Umbrella plant response rating
Summary of the method: as §2

SMILES: CN1CC(c2cccc(/C=C/Cl)c2)C(C(=O)Nc2ccccc2F)C1=O (stereo not drawn) [Compound 1129]
- pest or weed control at 125 g/ha (Kochia (Kochia scoparia) [1]): 0%
- pest or weed control at 500 g/ha (Kochia (Kochia scoparia) [1]): 50%
- pest or weed control at 125 g/ha [2]: 80%
- pest or weed control at 500 g/ha [2]: 90%
- pest or weed control at 125 g/ha [3]: 90%
- pest or weed control at 500 g/ha [3]: 90%
- pest or weed control at 125 g/ha [4]: 0%
- pest or weed control at 500 g/ha [4]: 0%
- pest or weed control at 125 g/ha [5]: 0%
- pest or weed control at 500 g/ha [5]: 0%
- pest or weed control at 125 g/ha [6]: 20%
- pest or weed control at 500 g/ha [6]: 50%
- pest or weed control at 125 g/ha (Kochia (Kochia scoparia) [7]): 0%
- pest or weed control at 500 g/ha (Kochia (Kochia scoparia) [7]): 0%
- pest or weed control at 125 g/ha [8]: 40%
- pest or weed control at 500 g/ha [8]: 90%
- pest or weed control at 125 g/ha [9]: 0%
- pest or weed control at 500 g/ha [9]: 0%
- pest or weed control at 125 g/ha [10]: 0%
- pest or weed control at 500 g/ha [10]: 0%
- pest or weed control at 250 g/ha [11]: 20%
- pest or weed control at 250 g/ha [12]: 70%
- pest or weed control at 250 g/ha (rice (Oryra sativa)): 0%
- pest or weed control at 250 g/ha [13]: 0%

SMILES: CN1CC(c2cccc(O)c2)C(C(=O)Nc2cccc(F)c2F)C1=O (stereo not drawn) [Compound 1130]
- pest or weed control at 125 g/ha (Kochia (Kochia scoparia) [1]): 0%
- pest or weed control at 500 g/ha (Kochia (Kochia scoparia) [1]): 0%
- pest or weed control at 125 g/ha [2]: 0%
- pest or weed control at 500 g/ha [2]: 0%
- pest or weed control at 125 g/ha [3]: 0%
- pest or weed control at 500 g/ha [3]: 30%
- pest or weed control at 125 g/ha [4]: 0%
- pest or weed control at 500 g/ha [4]: 0%
- pest or weed control at 125 g/ha [5]: 0%
- pest or weed control at 500 g/ha [5]: 0%
- pest or weed control at 125 g/ha [6]: 0%
- pest or weed control at 500 g/ha [6]: 0%
- pest or weed control at 125 g/ha (Kochia (Kochia scoparia) [7]): 0%
- pest or weed control at 500 g/ha (Kochia (Kochia scoparia) [7]): 0%
- pest or weed control at 125 g/ha [8]: 0%
- pest or weed control at 500 g/ha [8]: 20%
- pest or weed control at 125 g/ha [9]: 0%
- pest or weed control at 500 g/ha [9]: 0%
- pest or weed control at 125 g/ha [10]: 0%
- pest or weed control at 500 g/ha [10]: 0%
- pest or weed control at 250 g/ha [11]: 0%
- pest or weed control at 250 g/ha [12]: 0%
- pest or weed control at 250 g/ha (rice (Oryra sativa)): 0%
- pest or weed control at 250 g/ha [13]: 0%

SMILES: O=C1NC[C@H](c2ccc(F)c(OC(F)(F)C(F)F)c2)[C@H]1C(=O)Nc1ccccc1F [Compound 1133]
- pest or weed control at 125 g/ha (Kochia (Kochia scoparia) [1]): 60%
- pest or weed control at 500 g/ha (Kochia (Kochia scoparia) [1]): 100%
- pest or weed control at 125 g/ha [2]: 90%
- pest or weed control at 500 g/ha [2]: 90%
- pest or weed control at 125 g/ha [3]: 90%
- pest or weed control at 500 g/ha [3]: 90%
- pest or weed control at 125 g/ha [4]: 30%
- pest or weed control at 500 g/ha [4]: 70%
- pest or weed control at 125 g/ha [5]: 40%
- pest or weed control at 500 g/ha [5]: 60%
- pest or weed control at 125 g/ha [6]: 20%
- pest or weed control at 500 g/ha [6]: 30%
- pest or weed control at 125 g/ha (Kochia (Kochia scoparia) [7]): 30%
- pest or weed control at 500 g/ha (Kochia (Kochia scoparia) [7]): 70%
- pest or weed control at 125 g/ha [8]: 80%
- pest or weed control at 500 g/ha [8]: 90%
- pest or weed control at 125 g/ha [9]: 30%
- pest or weed control at 500 g/ha [9]: 70%
- pest or weed control at 125 g/ha [10]: 0%
- pest or weed control at 500 g/ha [10]: 70%
- pest or weed control at 250 g/ha [11]: 50%
- pest or weed control at 250 g/ha [12]: 85%
- pest or weed control at 250 g/ha (rice (Oryra sativa)): 0%
- pest or weed control at 250 g/ha [13]: 0%

SMILES: CC(C)Oc1ccc([C@H]2CNC(=O)[C@@H]2C(=O)Nc2ccccc2F)cc1 [Compound 1135]
- pest or weed control at 125 g/ha (Kochia (Kochia scoparia) [1]): 0%
- pest or weed control at 500 g/ha (Kochia (Kochia scoparia) [1]): 0%
- pest or weed control at 125 g/ha [2]: 0%
- pest or weed control at 500 g/ha [2]: 0%
- pest or weed control at 125 g/ha [3]: 0%
- pest or weed control at 500 g/ha [3]: 0%
- pest or weed control at 125 g/ha [4]: 0%
- pest or weed control at 500 g/ha [4]: 0%
- pest or weed control at 125 g/ha [5]: 0%
- pest or weed control at 500 g/ha [5]: 0%
- pest or weed control at 125 g/ha [6]: 0%
- pest or weed control at 500 g/ha [6]: 0%
- pest or weed control at 125 g/ha (Kochia (Kochia scoparia) [7]): 0%
- pest or weed control at 500 g/ha (Kochia (Kochia scoparia) [7]): 0%
- pest or weed control at 125 g/ha [8]: 0%
- pest or weed control at 500 g/ha [8]: 0%
- pest or weed control at 125 g/ha [9]: 0%
- pest or weed control at 500 g/ha [9]: 0%
- pest or weed control at 125 g/ha [10]: 0%
- pest or weed control at 500 g/ha [10]: 0%
- pest or weed control at 250 g/ha [11]: 0%
- pest or weed control at 250 g/ha [12]: 40%
- pest or weed control at 250 g/ha (rice (Oryra sativa)): 0%
- pest or weed control at 250 g/ha [13]: 0%

SMILES: CC(C)Oc1ccc([C@H]2CNC(=O)[C@@H]2C(=O)Nc2cccc(F)c2F)cc1 [Compound 1136]
- pest or weed control at 125 g/ha (Kochia (Kochia scoparia) [1]): 0%
- pest or weed control at 500 g/ha (Kochia (Kochia scoparia) [1]): 80%
- pest or weed control at 125 g/ha [2]: 30%
- pest or weed control at 500 g/ha [2]: 90%
- pest or weed control at 125 g/ha [3]: 30%
- pest or weed control at 500 g/ha [3]: 90%
- pest or weed control at 125 g/ha [4]: 0%
- pest or weed control at 500 g/ha [4]: 0%
- pest or weed control at 125 g/ha [5]: 0%
- pest or weed control at 500 g/ha [5]: 0%
- pest or weed control at 125 g/ha [6]: 0%
- pest or weed control at 500 g/ha [6]: 30%
- pest or weed control at 125 g/ha (Kochia (Kochia scoparia) [7]): 0%
- pest or weed control at 500 g/ha (Kochia (Kochia scoparia) [7]): 0%
- pest or weed control at 125 g/ha [8]: 30%
- pest or weed control at 500 g/ha [8]: 90%
- pest or weed control at 125 g/ha [9]: 0%
- pest or weed control at 500 g/ha [9]: 30%
- pest or weed control at 125 g/ha [10]: 0%
- pest or weed control at 500 g/ha [10]: 0%
- pest or weed control at 250 g/ha [11]: 0%
- pest or weed control at 250 g/ha [12]: 85%
- pest or weed control at 250 g/ha (rice (Oryra sativa)): 0%
- pest or weed control at 250 g/ha [13]: 0%
